{"source": "patent EP4085972A1", "about": "“AMP-ACTIVATED PROTEIN KINASE INHIBITORS FOR USE IN THE TREATMENT OF PTSD IN A SUBJECT” (Consejo Superior de Investigaciones Científicas (CSIC), priority 2021, dated 2022)", "key": {"[1]": {"system": "fear-conditioned mice", "assay": "Cued-fear conditioning (freezing behavior, context recall)", "format": "in vivo", "protocol": "Cued-fear conditioning. Experiments were performed at the same time of the day during the light phase with 3-4 months-old male and female mice (n=14-19 mice/genotype, balanced sex). The training and test sessions were video recorded. Mice were placed in a shuttle box chamber (AccuScan Instruments) for 120 sec before exposing them to a neutral conditioned stimulus (CS+) -a tone of 80 dB for 30s, presented together with an aversive unconditioned stimulus (US) -an electrical footshock of 0.3 mA/2 sec, except in the case of the PTSD-eliciting protocol, where 2.5 mA shocks were used. Training consisted of 5 consecutive trials with 90 sec intertrials (CS-). Animals remained in the chamber for 5 min more before returning them to their home cages. Twenty-four hours later, fear conditioning was tested placing the animals in a different context using the same protocol but without the unconditioned stimulus (US). […] Freezing behavior was defined by the absence of movement except of breathing and heart beating. Context-dependent extinction was tested 1 and 5 weeks later (delayed extinction). Mice were placed in the same context for 5 min to measure their freezing behavior. The latter unveils PTSD-like behaviour when it is abnormally retained.\nDrug administration. Human recombinant IGF-I (Pre-Protech, USA) or vehicle (saline) were administered intracerebroventricularly (icv, 50 µg/kg/day) using Alzet osmotic minipumps for 7 days (Model 1007D), and the brain infusion kit 3 (Alzet, USA) with the following stereotaxic coordinates: AP= -0.5; ML= 1.1; DV= -2.5. Alzet pumps were implanted subcutaneously between the scapulae. In other experiments IGF-I was given intraperitoneally (ip, 1 µg/kg) to wild type mice submitted to the 2.5 mA fear-learning protocol 6 hours after fear conditioning. For hdM4Di (DREADD) experiments, clozapine-N-oxide (CNO, Tocris) was administered at 2mg/kg dissolved in saline 0.9%, and injected intraperitoneally 40 min before test sessions, and 24h and 1week after fear conditioning. 6-[4-(2-Piperidin-1-yl-ethoxy)-phenyl)]-3-pyridin-4-yl-pyrrazolo [1,5-a]-pyrimidine dihydrochloride (Compound C dihydrochloride, AMPK inhibitor; Cat. # CD0339, Chemdea NJ, USA) was administered intraperitoneally (ip, 10 mg/kg) 6 hours after fear conditioning to PTSD-like wild type mice."}, "[2]": {"system": "orexin neurons", "assay": "c-fos immunostaining in orexin neurons after fear conditioning", "format": "in vivo", "conditions": "Firoc DREADD mice treated with CNO at week 1", "protocol": "Immunocytochemistry. Mice were perfused transcardially under deep anesthesia (sodium pentobarbital, 50 mg/kg, i.p.) with 100 ml of saline buffer 0.9% followed by 100 ml of 4% paraformaldehyde (PFA) in 0.1N, pH 7.4 phosphate buffer (PB), 90 min after the cued-fear conditioning test, the recall context, or under basal conditions. This time point was selected as optimal to see c-Fos staining. For experiments with systemic administration of IGF-I, animals were sacrificed 2 hours after injection. Brains were removed, post-fixed overnight at 4°C in the same fixative, and cut at 50 µm thick sections on a vibratome (Leica VT 1000S). Sections were kept at 4°C, immersed in 0.1N PB with 0.02% sodium azide, until processing. Serial coronal free-floating sections were rinsed in 0.1N PB for 10 min, and a blocking solution containing 10% normal donkey serum, and 0.4% Triton X-100 in 0.1N PB (PB-T) was added and maintained at room temperature for 2 h. Thereafter, sections were incubated overnight at 4°C in the same solution with the corresponding primary antibodies (see Antibody Table). […] Images were taken with confocal microscopy (SP5, Leica Microsystems, Germany) and analyzed with Imaris software (Bitplane).\nImage analysis. […] Last, spots were created for Vgat and Vglut2 with an estimated XY size of 0.5 µm, and the number of Vgat and Vglut2 spots in orexin+ cells was counted."}, "[3]": {"system": "orexin neurons", "assay": "Patch-clamp recordings in acute hypothalamic slices (DREADD check)", "format": "cell-based", "conditions": "hypothalamic slices of Orexin-Cre mice transduced with pAAV-hSyn-DIO-hM4D(Gi)-mCherry; CNO 2µM in perfusate", "protocol": "Viral constructs. For chemogenetic experiments using DREADD, a viral construct (pAAV-hSyn-DIO-hM4D(Gi)-mCherry (AAV5; Addgene # 44362); 8.6 x 1012 viral infective units/ml) was locally injected bilaterally to inactivate orexin-cre neurons in Orexin-Cre (littermates) and transgenic mice (Firoc). As control virus, pAAV-hSyn-DIO-mCherry (AAV5; Addgene # 50459) was used. Both viral constructions were obtained from Addgene. Clozapine N-Oxide (CNO, 2mg/kg dissolved in saline 0.9%) was administered ip and 40 min later behavior was assessed, CNO efficacy in orexin neurons was confirmed in acute slices obtained from injected mice. Slices for electrophysiological recordings were prepared from 2-months old Orexin-Cre mice, 4 weeks after injection of the DREADD-mCherry virus into the lateral hypothalamus. […] Recordings were obtained at 30-32 °C from orexin+ neurons identified using fluorescence microscopy (mCherry+) in oxygenated artificial cerebrospinal fluid containing the following: 126 mM NaCl, 26 mM NaHCO3, 2.5 mM KCI, 1.25 mM NaH2PO4, 2 mM MgSO4, 2 mM CaCl2 and 10 mM glucose (pH 7.4). […] Data were analyzed using pClamp (Axon Instruments)."}}}
{"molecule": "C[N+]1([O-])CCN(C2=Nc3cc(Cl)ccc3Nc3ccccc32)CC1", "note": "[CNO, clozapine-N-oxide]", "values": [{"measurement": "freezing behavior in the fifth week after fear learning", "setting": "[1]; Firoc DREADD mice treated with CNO 1 week after fear learning", "result": "normal freezing behavior"}, {"measurement": "context-dependent fear responses (context recall) 1 week later", "setting": "[1]; Firoc mice injected with hM4Di virus, after CNO administration", "result": "normalized fear responses"}, {"measurement": "fear responses after fear conditioning", "setting": "[1]; Firoc mice with hM4Di DREADD virus in lateral hypothalamus, CNO 2mg/kg ip 40 min before testing", "result": "normalized their fear responses"}, {"measurement": "increased freezing after 2.5 mA shock protocol", "setting": "[1]; orexin-Cre mice injected with hM4Di virus, CNO administration", "result": "ameliorated"}, {"measurement": "c-fos expression in orexin neurons 5 weeks after fear conditioning", "setting": "[2]", "result": "normal"}, {"measurement": "inhibition of orexin neurons (action potential frequency, input resistance)", "setting": "[3]", "result": "inhibition of orexin neurons was confirmed"}]}
{"molecule": "c1cc(-c2cnn3cc(-c4ccc(OCCN5CCCCC5)cc4)cnc23)ccn1", "note": "[Compound C]", "values": [{"measurement": "fear behavior after the PTSD protocol", "setting": "[1]; wild type mice, 2.5 mA shocks, Compound C ip, 10 mg/kg, 6 hours after fear conditioning", "result": "normalized fear behavior"}]}
